pIC50: −log10 of the molar value. Read-outs that look alike come from different tables or passages of the source.

The results in this text go back to patent US20240262842A1, “SMALL MOLECULE INHIBITORS OF KRAS G12C MUTANT” (Merck Sharp & Dohme LLC, priority 2021, published 2024).

For one experiment, the system named is MIA PaCa-2 cells. Put plainly: Growth inhibition activity on KRAS-G12C mutant cell line (CellTiter-Glo 3D). The format is cell-based, human. The conditions noted are these: MIA PaCa-2, 3-day culture with compound. The method, boiled down: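 MIA PaCa-2 cells in RPMI1640 with 10% FBS, U-bottom wells, cultured 1 day before compound (0.2% DMSO final), then 3 days at 37 °C, 5% CO2. Viability by CellTiter-Glo 3D luminescence; growth inhibition versus untreated wells gives IC50 (nM).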
(Cellular ATP, detected with luciferase, serves as a proxy for viable cell number.)

Experiment [1] concerns the target T1, interaction between GMPPNP-bound recombinant K-Ras4B G12C mutant protein and cRAF RAS-binding domain (cRAF-RBD) (Homo sapiens, UniProt P01116, G12C).
T1 construct: His-tag (N)
Put plainly: Inhibitory activity on interaction between KRAS G12C and cRAF (Alpha technology). A digest of the protocol: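 His-tagged K-Ras4B G12C (aa 1-169), GMPPNP-loaded, preincubated with compound 1 h at 25° C in pH 7.5 Tris buffer with MgCl2, TCEP, Tween 20. cRAF-RBD (aa 50-132) and Alpha reagents then added for 1.5 h; Alpha signal normalised to DMSO (0%) and GDP-bound KRAS (100%); IC50 from dose titration.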

[2] abbreviates: Homo sapiens, MIA PaCa-2, 72 h, Table 3-1.
The mark [3] stands for this setting: GMPPNP-bound KRAS G12C incubated with compound 25° C. 1 hour, Table 2-1, read-out: IC50.
Setting [4] is: GMPPNP-bound KRAS G12C incubated with compound 25° C. 1 hour, Table 2, read-out: IC50.
Where [5] appears, read: IC50, GMPPNP-bound KRAS G12C incubated with compound 25° C. 1 hour, Table 2.
Where [6] appears, read: IC50, GMPPNP-bound KRAS G12C incubated with compound 25° C. 1 hour, Table 2-1.
Where [7] appears, read: Homo sapiens, MIA PaCa-2, 72 h, Table 3.

Broadly, the pIC50 is −log10 of the IC50, conventionally taken in molar units. Take `COCCn1cnc2c3c(c(C(F)(F)F)cc21)-c1cccn2c(C(=O)c4cc(F)c(NC(=O)/C=C/CNC5(C)COC5)c(F)c4)cc(c12)CCN3C` (single isomer, unassigned) [Example 178, (E)-N-(2,6-difluoro-4-(9-(2-methoxyethyl)-12-methyl-7-(trifluorometh-yl)-9,12,13,14-tetrahydro-imidazo[4″,5″:5′,6′]benzo-[1′,2′:2,3]azocino[4,5,6-hi]indolizine-2-carbonyl)-phenyl)-4-((3-methyl-oxetan-3-yl)amino)but-2-enamide]: the pIC50 with MIA PaCa-2 cells (setting [2]) is 7.38; in experiment [1] (setting [3]) it was 7.49.
For the molecule `Cn1cnc2c3c(c(C(F)(F)F)cc21)-c1cccn2c(C(=O)c4cc(F)c(NC(=O)/C=C/CN5C[C@@H]6COC[C@H]6C5)c(F)c4)cc(c12)CCO3` (racemic) [Example 248], the pIC50 in the experiment on MIA PaCa-2 cells (setting [2]) is 7.66; in experiment [1] (setting [3]) it was 7.74.
As to `CO[C@H]1CC[C@H](NC/C=C/C(=O)Nc2c(F)cc(C(=O)c3cc4c5c(cccn35)-c3c(C(F)(F)F)cc5c(nc(C)n5C)c3OC(C)C4)cc2F)CC1` (single isomer, unassigned) [Example 42-1, (E)-N-(2,6-difluoro-4-(9,10,13-trimethyl-7-(trifluoromethyl)-13,14-dihydro-9H-imidazo[4″,5″:5′,6′]benzo[1′,2′:2,3]oxocino[4,5,6-hi]indolizine-2-carbonyl)phenyl)-4-(((1r,4r)-4-methoxycyclohexyl)amino)but-2-enamide], the pIC50 in the experiment on MIA PaCa-2 cells (Table 3) was 8.22; in experiment [1] (setting [4]), 7.96.
For `CO[C@H]1CC[C@H](NC/C=C/C(=O)Nc2c(F)cc(C(=O)c3cn4c5c(cccc35)-c3c(Cl)cccc3OCC4)cc2F)CC1` (single isomer, unassigned) [Example 1-1], the pIC50 was 5.11 with MIA PaCa-2 cells (Table 3) and less than 5.17 in experiment [1] (setting [5]).
For `Cc1nc2c3c(c(C(F)(F)F)cc2n1C)-c1cccc2c(C(=O)c4cc(F)c(NC(=O)/C=C/CNC5(C)COC5)c(F)c4)cn(c12)CCO3` [Example 91], the pIC50 is 8.06 with MIA PaCa-2 cells (setting [2]) and 7.57 in experiment [1] (setting [6]).
`CO[C@H]1CC[C@H](NC/C=C/C(=O)Nc2c(F)cc(C(=O)c3cn4c5c(cccc35)-c3c(C)cc5c(nc(C)n5C)c3N(C)CC4)cc2F)CC1` [Example 44]: the figures for the pIC50 (in the experiment on MIA PaCa-2 cells (setting [7]); in experiment [1] (setting [5])) were 8.00 and 7.52, respectively.
With `Cc1cnc2c3c(c(C(F)(F)F)cn12)-c1cccn2c(C(=O)c4cc(F)c(NC(=O)/C=C/CN[C@H]5CCOC5)c(F)c4)cc(c12)CCN3C` (single isomer, unassigned) [Example 242], the pIC50 was 7.78 with MIA PaCa-2 cells (setting [2]) and 7.75 in experiment [1] (setting [3]).
`CC1Cc2cc(C(=O)c3cc(F)c(NC(=O)/C=C/CNC4(C)COC4)c(F)c3)n3cccc(c23)-c2c(C(F)(F)F)cc3c(ncn3C)c2O1` (single isomer, unassigned) [Example 130-1, (E)-N-(4-(9,13-dimethyl-7-(trifluoromethyl)-13,14-dihydro-9H-imidazo[4″,5″:5′,6′]benzo[1′,2′:2,3]oxocino[4,5,6-hi]indolizine-2-carbonyl)-2,6-difluorophenyl)-4-((3-methyloxetan-3-yl)amino)but-2-enamide]: the negative-log IC50 (pIC50) was 7.76 with MIA PaCa-2 cells (Table 3-1) and 7.58 in experiment [1] (setting [3]).
Regarding `CO[C@H]1CC[C@H](NC/C=C/C(=O)Nc2ccc(C(=O)c3cc4c5c(cccn35)-c3c(C(F)(F)F)cc5c(nc(C)n5C)c3OCC4)nc2)CC1` [Example 59, (E)-N-(6-(9,10-dimethyl-7-(trifluoromethyl)-13,14-dihydro-9H-imidazo-[4″,5″:5′,6′]benzo[1′,2′: 2,3]oxocino[4,5,6-hi]-indolizine-2-carbonyl)-pyridin-3-yl)-4-(((1r,4r)-4-methoxycyclohexyl)-amino)but-2-enamide], the pIC50 with MIA PaCa-2 cells (setting [2]) was 7.70; in experiment [1] (setting [3]), 7.56.
In the case of `COc1cc2c(nc(C)n2C)c2c1-c1cccn3c(C(=O)c4cc(F)c(NC(=O)/C=C/CNC56CCC(CC5)OC6)c(F)c4)cc(c13)CCN2C` [Example 121], the pIC50 in the experiment on MIA PaCa-2 cells (setting [2]) is 7.58; in experiment [1] (setting [3]), 7.64.
Turning to `CN1CCc2nc(C(=O)c3cc(F)c(NC(=O)/C=C/CNC4(C)CC4)c(F)c3)n3cccc(c23)-c2c(C(F)(F)F)cc3c(ncn3C)c21` (single isomer, unassigned) [Example 182], the pIC50 is 7.56 in the experiment with MIA PaCa-2 cells (setting [2]) and 7.45 in experiment [1] (setting [3]).
Take `Cn1cnc2c3c(c(C(F)(F)F)cc21)-c1cccn2c(C(=O)c4cc(F)c(NC(=O)/C=C/CN5CCCC[C@H]5CO)c(F)c4)cc(c12)CCO3` [Example 222, (S,E)-N-(2,6-difluoro-4-(9-methyl-7-(trifluoro-methyl)-13,14-dihydro-9H-imidazo[4″,5″:5′,6′]-benzo[1′,2′:2,3]oxocino-[4,5,6-hi]indolizine-2-carbonyl)phenyl)-4-(2-(hydroxymethyl)piperidin-1-yl)but-2-enamide]: the pIC50 with MIA PaCa-2 cells (setting [2]) is 5.71; in experiment [1] (setting [3]), 7.12.
Take `Cn1cnc2c3c(c(C(F)(F)F)cc21)-c1cccn2c(C(=O)c4cc(F)c(NC(=O)/C=C/CN5C[C@H]6COC[C@H]6C5)c(F)c4)cc(c12)CCO3` [Example 213, (E)-N-(2,6-difluoro-4-(9-methyl-7-(trifluorometh-yl)-13,14-dihydro-9H-imidazo[4″,5″:5′,6′]benzo-[1′,2′:2,3]oxocino[4,5,6-hi]indolizine-2-carbonyl)-phenyl)-4-((3aR,6aS)-tetrahydro-1H-furo[3,4-c]pyrrol-5(3H)-yl)but-2-enamide]: the pIC50 was 7.60 with MIA PaCa-2 cells (setting [2]) and 7.21 in experiment [1] (setting [3]).
For `CN1CCc2cc(C(=O)c3cc(F)c(NC(=O)/C=C/CNCC(C)(C)O)c(F)c3)n3cccc(c23)-c2c(C(F)(F)F)cc3c(ncn3C)c21` [Example 112, (E)-N-(4-(9,12-dimethyl-7-(trifluoromethyl)-9,12,13,14-tetrahydro-imidazo[4″,5″:5′,6′]benzo-[1′,2′:2,3]azocino[4,5,6-hi]indolizine-2-carbonyl)-2,6-difluorophenyl)-4-((2-hydroxy-2-methylpropyl)-amino)but-2-enamide], in that order: 8.00 and 7.53.
In the case of `Cc1cc2c(ncn2C)c2c1-c1cccn3c(C(=O)c4cc(F)c(NC(=O)/C=C/CN[C@H]5CCOC5)c(F)c4)cc(c13)CCN2C` (single isomer, unassigned) [Example 117], the values for the pIC50 (in the experiment with MIA PaCa-2 cells (setting [2]); in experiment [1] (setting [3])) were 7.26 and 7.69, respectively.
In the case of `C[C@H](O)[C@@H]1CCCN1C/C=C/C(=O)Nc1c(F)cc(C(=O)c2cc3c4c(cccn24)-c2c(C(F)(F)F)cc4c(ncn4C)c2N(C)CC3)cc1F` [Example 219, (E)-N-(4-(9,12-dimethyl-7-(trifluoromethyl)-9,12,13,14-tetrahydro-imidazo[4″,5″:5′,6′]benzo-[1′,2′:2,3]azocino[4,5,6-hi]indolizine-2-carbonyl)-2,6-difluorophenyl)-4-((S)-2-((S)-1-hydroxy-ethyl)pyrrolidin-1-yl)but-2-enamide], the pIC50 in the experiment with MIA PaCa-2 cells (setting [2]) is 7.90; in experiment [1] (setting [3]), 7.41.
For the molecule `CO[C@H]1CC[C@H](NC/C=C/C(=O)Nc2c(F)cc(C(=O)c3cn4c5c(cccc35)-c3c(C)cc5c(nc(C)n5C)c3N(C)CC4)cc2F)CC1` (single isomer, unassigned) [Example 62], the values for the pIC50 (in the experiment on MIA PaCa-2 cells (setting [2]); in experiment [1] (setting [6])) were 8.16 and 7.76, respectively.
Regarding `Cc1nc2c3c(c(C(F)(F)F)cc2n1C)-c1cccn2c(C(=O)c4cc(F)c(NC(=O)/C=C/CNC5(C(=O)O)CCCCC5)c(F)c4)cc(c12)CCO3` [Example 40], the figures for the negative-log IC50 (pIC50) (with MIA PaCa-2 cells (setting [7]); in experiment [1] (setting [4])) were 5.80 and 5.33, respectively.
As to `COc1cc2c(nc(C)n2C)c2c1-c1cc(F)cn3c(C(=O)c4cc(F)c(NC(=O)/C=C/CNC5(C)CC5)c(F)c4)cc(c13)CCN2C` (single isomer, unassigned) [Example 238], the pIC50 in the experiment with MIA PaCa-2 cells (setting [2]) is 8.57; in experiment [1] (setting [3]) it was 8.06.
Take `Cn1cnc2c3c(c(C(F)(F)F)cc21)-c1cccn2c(C(=O)c4cc(F)c(NC(=O)/C=C/CN5CC[C@H]5CF)c(F)c4)cc(c12)CCO3` [Example 175, (S,E)-N-(2,6-difluoro-4-(9-methyl-7-(trifluoro-methyl)-13,14-dihydro-9H-imidazo[4″,5″:5′,6′]-benzo[1′,2′:2,3]oxocino-[4,5,6-hi]indolizine-2-carbonyl)phenyl)-4-(2-(fluoromethyl)azetidin-1-yl)but-2-enamide]: the pIC50 in the experiment with MIA PaCa-2 cells (setting [2]) is 7.63; in experiment [1] (setting [3]) it was 7.04.
On to “(E)-N-(2,6-difluoro-4-(10-(methoxymethyl)-9,13-dimethyl-12-oxo-7-(trifluoromethyl)-9,12,13,14-tetrahydroimidazo[4″,5″:3′,4′]benzo[1′,2′:6,7]azocino[5,4,3-hi]indolizine-2-carbonyl)phenyl)-4-((3-methyloxetan-3-yl)amino)but-2-enamide [Example 152]”, for which the pIC50 with MIA PaCa-2 cells (Table 3-1) is 6.03; in experiment [1] (setting [3]), 7.05.
Turning to `Cc1cc2c(nc(C)n2C)c2c1-c1cccc3c(C(=O)c4cc(F)c(NC(=O)/C=C/CNC5CC6(COC6)C5)c(F)c4)cn(c13)CCN2C` [Example 84, (E)-4-((2-oxaspiro[3.3]-heptan-6-yl)amino)-N-(2,6-difluoro-4-(6,8,9,11-tetramethyl-8,11,12,13-tetrahydroimidazo[4″,5″: 5′,6′]benzo[1′,2′:5,6]-[1,4]diazocino[7,8,1-hi]-indole-2-carbonyl)phenyl) but-2-enamide], the pIC50 is 7.30 with MIA PaCa-2 cells (setting [2]) and 7.40 in experiment [1] (setting [6]).
